{
  "source": "patent US20080045567A1",
  "about": "“Therapeutic Agent for Hyperlipemia and Therapeutic Agent for Diabetes” (Kowa Co., Ltd, priority 2004, published 2008)",
  "key": {"blood triglycerides [1]": {"system": "blood triglycerides", "assay": "Lowering of blood triglycerides by combined administration of sodium salt of compound A and calcium salt of atorvastatin in rats (Example 2)", "format": "in vivo, male Wistar strain rats", "settings": "rat; for blood triglycerides in comparison with the control group (in words): orally 14 days, Dunnett's test; for Reduction rate of blood triglycerides (%): blood collected after 18 h fast, vs control group", "from_the_text": "Six-week-old male Wistar strain rats (Nippon Ikagaku Jikken Doubutsu Kabushiki Kaisha) were used for the test. Throughout the experimental period, the rats were fed in a rearing room maintained at a light-dark cycle (light period lit by room lamp: 7 am to 7 pm), a temperature of 23±3 degrees C., and a humidity of 55±15%, and were allowed free access to solid feed (CE-2: CLEA Japan, Inc.) and tap water.\nCalcium salt of pitavastatin and sodium salt of the compound A were suspended in an aqueous solution of 0.5% by mass of sodium carboxymethylcellulose (Iwai Chemicals Co., Ltd.) and prepared so that the dose amount became 2 mL/kg. Since calcium salt of pitavastatin contained 9.43% by mass of water, 1.1-fold by mass of the dose amount was weighed to correct. The suspension was refrigerated (4 degrees C.) and kept in a light-resistant bottle, and its preparation was carried out every 7 days.\nThirty-two rats were divided into four groups (eight rats per each group) so that blood total cholesterol and blood triglycerides are averaged. That is, the four groups consisted of a control group, a group of calcium salt of pitavastatin alone (10 mg/kg), a group of sodium salt of the compound A alone (1 mg/kg), and a group of a combination of calcium salt of pitavastatin (10 mg/kg) and sodium salt of the compound A (1 mg/kg). The drugs were orally administered once a day (at 4 pm) for 14 days repeatedly, and the control group received orally the aqueous solution of 0.5% by mass of sodium carboxymethylcellulose at 2 mL/kg. All the groups were fasted for 18 hours after the final administration. Then, blood was collected and blood triglycerides were determined.\nThe effect of lowering blood triglycerides by combined administration of sodium salt of the compound A and calcium salt of atorvastatin was determined as in Example 1."}, "blood triglycerides [2]": {"system": "blood triglycerides", "assay": "Lowering of blood triglycerides by combined administration of sodium salt of compound A and calcium salt of pitavastatin in rats (Example 1)", "format": "in vivo, male Wistar strain rats", "settings": "rat; for blood triglycerides in comparison with the control group (in words): orally 14 days, Dunnett's test; for Reduction rate of blood triglycerides (%): blood collected after 18 h fast, vs control group", "experimental": "The effect of lowering blood triglycerides by combined administration of sodium salt of the compound A and calcium salt of pitavastatin was determined by the following method. Six-week-old male Wistar strain rats (Nippon Ikagaku Jikken Doubutsu Kabushiki Kaisha) were used for the test. Throughout the experimental period, the rats were fed in a rearing room maintained at a light-dark cycle (light period lit by room lamp: 7 am to 7 pm), a temperature of 23±3 degrees C., and a humidity of 55±15%, and were allowed free access to solid feed (CE-2: CLEA Japan, Inc.) and tap water. Calcium salt of pitavastatin and sodium salt of the compound A were suspended in an aqueous solution of 0.5% by mass of sodium carboxymethylcellulose (Iwai Chemicals Co., Ltd.) and prepared so that the dose amount became 2 mL/kg. Since calcium salt of pitavastatin contained 9.43% by mass of water, 1.1-fold by mass of the dose amount was weighed to correct. The suspension was refrigerated (4 degrees C.) and kept in a light-resistant bottle, and its preparation was carried out every 7 days. Thirty-two rats were divided into four groups (eight rats per each group) so that blood total cholesterol and blood triglycerides are averaged. That is, the four groups consisted of a control group, a group of calcium salt of pitavastatin alone (10 mg/kg), a group of sodium salt of the compound A alone (1 mg/kg), and a group of a combination of calcium salt of pitavastatin (10 mg/kg) and sodium salt of the compound A (1 mg/kg). The drugs were orally administered once a day (at 4 pm) for 14 days repeatedly, and the control group received orally the aqueous solution of 0.5% by mass of sodium carboxymethylcellulose at 2 mL/kg. All the groups were fasted for 18 hours after the final administration. Then, blood was collected and blood triglycerides were determined. Multigroup comparison between the control group and drug-administered group was performed with Dunnett's multiple comparison test after Bartlett's test for analysis of variance, and a significance level lower than 5% was considered to indicate significant difference."}, "[3]": {"settings": "1 mg/kg orally once a day for 14 days"}},
  "data": [
    {"smiles": "O=C(O)C(Cl)(Cl)CCCCCCCCCCc1ccc(Cl)cc1", "note": "[Compound A Na, 12-(4-chlorophenyl)-2,2-dichlorododecanoic acid]", "values": [
      {"measurement": "blood triglycerides in comparison with the control group (in words)", "setting": "blood triglycerides [1]; 1 mg/kg alone, p<0.05", "value": "a significant reduction"},
      {"measurement": "Reduction rate of blood triglycerides (%)", "setting": "blood triglycerides [1]; [3]", "value": 25, "unit": "%"},
      {"measurement": "blood triglycerides in comparison with the control group (in words)", "setting": "blood triglycerides [2]; 1 mg/kg alone, p<0.05", "value": "a significant reduction"},
      {"measurement": "Reduction rate of blood triglycerides (%)", "setting": "blood triglycerides [2]; [3]", "value": 25, "unit": "%"}
    ]},
    {"smiles": "O=C(O)C[C@H](O)C[C@H](O)/C=C/c1c(C2CC2)nc2ccccc2c1-c1ccc(F)cc1", "note": "[Pitavastatin Ca, (3R,5S,6E)-7-[2-cyclopropyl-4-(4-fluorophenyl)-3-quinolyl]-3,5-dihydroxy-6-heptenoic acid]", "values": [
      {"measurement": "blood triglycerides in comparison with the control group (in words)", "setting": "blood triglycerides [2]; 10 mg/kg alone", "value": "a tendency to be lowered"},
      {"measurement": "Reduction rate of blood triglycerides (%)", "setting": "blood triglycerides [2]; 10 mg/kg orally once a day for 14 days", "value": 20, "unit": "%"}
    ]},
    {"smiles": "CC(C)c1c(C(=O)Nc2ccccc2)c(-c2ccccc2)c(-c2ccc(F)cc2)n1CC[C@@H](O)C[C@@H](O)CC(=O)O", "note": "[Atorvastatin Ca, atorvastatin]", "values": [
      {"measurement": "blood triglycerides in comparison with the control group (in words)", "setting": "blood triglycerides [1]; 50 mg/kg alone", "value": "a tendency to be lowered"},
      {"measurement": "Reduction rate of blood triglycerides (%)", "setting": "blood triglycerides [1]; 50 mg/kg orally once a day for 14 days", "value": 7, "unit": "%"}
    ]}
  ]
}
